The values below come from PubChem BioAssay (NCI).

Some test systems named below: 786-0 renal; ACHN renal; CAKI-1 renal; DU-145 prostate; MDA-N; NCI-H460 lung; RPMI-8226 leukemia; RXF 393 renal; SF-295 CNS; SK-MEL-28 melanoma; SR leukemia.
What all share (assay): DTP human tumour cell line panel, 48 h

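1) Cells in 96-well plates. 2) Compound, 48 h, 5 concentrations. 3) Linear interpolation between surrounding doses. 4) Unreached endpoint = highest concentration. TGI: total growth inhibition.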

As for `O=C(CSc1nc2ccccc2c(=O)n1-c1ccccc1)N=Nc1c(O)[nH]c2ccc(Br)cc12`, the concentration for total growth inhibition (TGI) (usually the concentration giving total growth inhibition) was 4.33 µM with 786-0 renal; over 94.5 µM with ACHN renal; 3.69 µM in the assay on CAKI-1 renal; 3.39 µM with DU-145 prostate; 16.9 µM in the assay on MDA-N; 41.8 µM in the assay on NCI-H460 lung. In addition, the TGI in the assay on RPMI-8226 leukemia is over 38 µM; in the assay with RXF 393 renal it was 7.68 µM; with SF-295 CNS it was 8.93 µM; in the assay on SK-MEL-28 melanoma it was 13.8 µM; with SR leukemia, over 26.6 µM.

Turning to `Nc1nc(N)c2cc(-c3cc4ccccc4[nH]3)ccc2n1`, the TGI with 786-0 renal worked out at 49.6 µM; in the assay with ACHN renal, 33.3 µM; with CAKI-1 renal it was 94.9 µM; with DU-145 prostate, 58.8 µM; with MDA-N, 40.7 µM; in the assay with NCI-H460 lung, 45.8 µM. The TGI came out at 32.4 µM in the assay with RPMI-8226 leukemia; 48.4 µM in the assay with RXF 393 renal; 90.2 µM with SF-295 CNS; 48.7 µM with SK-MEL-28 melanoma; 60.5 µM in the assay with SR leukemia.

Regarding `CCOC(=O)Cn1nnc2ccc(Nc3nc4ccccc4nc3C(=O)OCC)cc21`, the TGI in the assay with 786-0 renal, with ACHN renal, with CAKI-1 renal, in the assay with DU-145 prostate, in the assay with MDA-N and in the assay on NCI-H460 lung was over 100 µM throughout. The TGI with RPMI-8226 leukemia, in the assay with RXF 393 renal, in the assay with SF-295 CNS, in the assay with SK-MEL-28 melanoma and with SR leukemia was over 100 µM each time.

Take `CN1CCN(c2n[nH]c(=O)c3c2nnn3Cc2ccccc2)CC1`: the TGI was over 100 µM with 786-0 renal; over 100 µM in the assay on ACHN renal; over 100 µM with CAKI-1 renal; over 100 µM with DU-145 prostate; 40.1 µM in the assay on MDA-N; over 100 µM with NCI-H460 lung. Further, the TGI in the assay on RPMI-8226 leukemia, in the assay with RXF 393 renal, with SF-295 CNS, in the assay on SK-MEL-28 melanoma and in the assay with SR leukemia was over 100 µM in each case.

As to `O=C1C(NS(=O)(=O)c2ccccc2)=C(n2ccnc2)C(=O)c2ccccc21`, the TGI in the assay with 786-0 renal, in the assay on ACHN renal, with CAKI-1 renal, in the assay with DU-145 prostate, with MDA-N and in the assay with NCI-H460 lung was over 100 µM throughout. The TGI in the assay on RPMI-8226 leukemia, in the assay with RXF 393 renal, in the assay with SF-295 CNS, with SK-MEL-28 melanoma and in the assay on SR leukemia was over 100 µM each time.

Regarding `COc1nc2ncc([C@@H](OC(C)=O)[C@@H](COC(C)=O)OC(C)=O)nc2c(=O)n1C`, the TGI in the assay with 786-0 renal, with ACHN renal, in the assay with CAKI-1 renal, with DU-145 prostate, in the assay on MDA-N and in the assay on NCI-H460 lung was over 100 µM in each case. The TGI in the assay with RPMI-8226 leukemia, in the assay with RXF 393 renal, with SF-295 CNS, in the assay with SK-MEL-28 melanoma and with SR leukemia was over 100 µM throughout.

As for `COc1cc2ncnc(Nc3cccc(Br)c3)c2cc1OC`, the TGI in the assay on 786-0 renal was 4.8 µM; in the assay on ACHN renal, over 100 µM; with CAKI-1 renal, over 52.1 µM; with DU-145 prostate it was 34.2 µM; with MDA-N, over 42.9 µM; in the assay on NCI-H460 lung, 21.1 µM. The TGI with RPMI-8226 leukemia is over 100 µM; in the assay with RXF 393 renal, 53 µM; in the assay with SF-295 CNS it was 14.3 µM; in the assay on SK-MEL-28 melanoma, over 44.9 µM; with SR leukemia, over 31.6 µM.

As to `CCN1CC2=C(OC(N)=C(C#N)C2c2ccc(Cl)cc2)/C(=C/c2ccc(Cl)cc2)C1` (stereo not drawn), the TGI was 29.8 µM in the assay on 786-0 renal; 45.9 µM with ACHN renal; 30.5 µM in the assay with CAKI-1 renal; over 100 µM in the assay with DU-145 prostate; over 100 µM with MDA-N; over 100 µM with NCI-H460 lung. Moreover, the TGI in the assay on RPMI-8226 leukemia was 85.1 µM; in the assay on RXF 393 renal, 31.9 µM; in the assay with SF-295 CNS, over 100 µM; with SK-MEL-28 melanoma, 42.9 µM; with SR leukemia, over 100 µM.

As for `O=C1O/C(=C(\Br)c2ccc([N+](=O)[O-])cc2)c2ccccc21`, the TGI in the assay with 786-0 renal, in the assay with ACHN renal, with CAKI-1 renal, with DU-145 prostate, with MDA-N and with NCI-H460 lung was over 100 µM each time. For the same molecule, the TGI with RPMI-8226 leukemia is over 61.8 µM; in the assay with RXF 393 renal, over 100 µM; in the assay on SF-295 CNS, over 100 µM; with SK-MEL-28 melanoma, over 100 µM; in the assay with SR leukemia it was over 71.4 µM.

Consider `CCCCCCc1cc2cc(C(=O)Nc3nc(C45CC6CC(CC(C6)C4)C5)cs3)c(=O)oc2cc1O`, for which the TGI in the assay with 786-0 renal is 25.6 µM; in the assay on ACHN renal, 20.8 µM; with CAKI-1 renal, 30.1 µM; with DU-145 prostate, over 100 µM; with MDA-N, 40.2 µM; in the assay on NCI-H460 lung, 50.3 µM. Besides, the TGI in the assay with RPMI-8226 leukemia is 39 µM; in the assay with RXF 393 renal it was 30.6 µM; in the assay on SF-295 CNS it was 23.6 µM; in the assay with SK-MEL-28 melanoma, over 100 µM; in the assay with SR leukemia it was 26.4 µM.

As to `COC(=O)C12C(=O)CC3CCC1C32C(=O)OC` (stereo not drawn), the TGI in the assay with 786-0 renal, in the assay on ACHN renal, in the assay with CAKI-1 renal, in the assay on DU-145 prostate, with MDA-N and in the assay on NCI-H460 lung was over 100 µM throughout. Also, the TGI in the assay on RPMI-8226 leukemia, in the assay on RXF 393 renal, with SF-295 CNS, in the assay on SK-MEL-28 melanoma and in the assay on SR leukemia was over 100 µM in each case.

As for `O=c1[nH]nc(-c2ccc3ccccc3c2)[nH]1`, the TGI in the assay with 786-0 renal, in the assay with ACHN renal, with CAKI-1 renal, in the assay on DU-145 prostate, in the assay with MDA-N and in the assay on NCI-H460 lung was over 100 µM throughout. In addition, the TGI with RPMI-8226 leukemia, in the assay with RXF 393 renal, with SF-295 CNS, in the assay on SK-MEL-28 melanoma and with SR leukemia was over 100 µM throughout.

On to `CCOP(=O)(OCC)/C(C#N)=C/c1nc[nH]c1C`, for which the TGI with 786-0 renal, with ACHN renal, in the assay on CAKI-1 renal, in the assay with DU-145 prostate, in the assay on MDA-N and with NCI-H460 lung was over 100 µM throughout. Besides, the total growth inhibition concentration (TGI) with RPMI-8226 leukemia, in the assay on RXF 393 renal, in the assay on SF-295 CNS, in the assay on SK-MEL-28 melanoma and in the assay with SR leukemia was over 100 µM in each case.
